Test results from the NIST ThermoML archive (doi:10.1021/acs.jced.5b01104).
Numbers after ± are expanded uncertainties.

Conditions: Liquid, Chromatography

vapor or sublimation pressure (412.6 K): 356 ± 28 kPa
vapor or sublimation pressure (443.2 K): 792 ± 62 kPa
vapor or sublimation pressure (483.2 K): 1902 ± 150 kPa
SMILES: O [water]
